The values that follow come from patent US20100221709A1, “METHODS FOR IDENTIFYING AGENTS THAT MODULATE APOPTOSIS IN CELLS THAT OVER-EXPRESS A BCL-2 FAMILY MEMBER PROTEIN” (priority 2005, published 2010).

The test system of experiment [1] is TAMH hepatocyte and RPMI-8226 myeloma cell lines. The experiment in a line: O2 consumption, Clark electrode. Particulars: 10 μM. It is filed as cell-based. Here is the method:
Respiratory rates of both cell lines were maintained through repeated additions of 10 μM 2-OMeAA, to a final concentration of 90 μM (FIG. 7A). […] The metabolic response to hypoxia is dominated by a shift to glycolytic metabolism characterized by increased rates of glucose uptake and reductive conversion of pyruvate to lactic acid. Real-time glucose consumption and lactate production by TAMH cells grown on microcarrier beads were monitored using a microsequential injection-lab on valve (μSI-LOV) system (Schulz et al., Analyst 127:1293-1298 (2002)). […] Since 2-OMeAA has no effect on cellular respiration at these concentrations, 2-OMeAA induces aerobic glycolysis in TAMH cells. The glycolytic response to 2-OMeAA was proportional to cellular Bcl-xL protein expression (FIG. 7C).

The test system of experiment [2] is TABX2S cells (over-expressing Bcl-xL). Kind of experiment: in vitro. An excerpt: (§1) Briefly, a DNA fragment encoding the full-length mouse Bcl-xL cDNA was isolated from the plasmid pBS-BCL-xL (Tzung et al., Am. J. Path. 150:1985-1995 (1997), incorporated herein by reference in its entirety) by digestion with the restriction endonuclease EcoRI. This EcoRI fragment was cloned into the EcoRI site of the mammalian expression vector pSFFV (Fuhlbrigge et al., Proc. Nat. Acad. Sci. USA 85:5649-5653 (1988)) in both sense and antisense orientations, to form expression plasmids pSFFV-Bc/-xL-WT(sense) or pSFFV-Bc/-xL(antisense), respectively. The tumorigenic murine hepatocyte cell line TAMH was transfected by lipofection (Lipofectamine, Life Technologies, Rockville, Md., according to the manufacturer's recommendations) with the plasmids pSFFV-neo (the control), pSFFV-Bc/-xL-WT(sense) or pSFFV-Bc/-xL(antisense). Characterization of and culture conditions for the cell lines have been previously published (Wu et al., Proc. Nat. Acad. Sci. USA 91:674-78 (1994); Wu et al., Cancer Res. 54:5964-5973 (1994)). Transfectants were selected for the acquisition of neomycin resistance by growing cells in the presence of 750 μg/ml of G418. Bulk transfectants were cloned by limiting dilution and individual clones were screened by immunoblot analysis to determine the level of Bcl-xL, protein expression as described below.
(§2) Selected transfectants were then tested for whole cell sensitivity to several apoptotic agents. Transfected cells were cultured to reach approximately 80% confluency prior to plating an equal number of cells from selected clones on 12-well tissue culture plates. The transplanted cells were treated with the following apoptotic agents: 5 μM doxorubicin for 48 hours; 5 μM cisplatin for 48 hours; or with 200 U/ml tumor necrosis factor (TNF) plus 1 μg/ml actinomycin D for 18 hours. Cell viability was determined by trypan blue dye exclusion. The percentage of viable cells was calculated by the number of viable cells (treated with a particular apoptogenic agent) divided by the number in the control group (untreated).
TABX2S cells and TABX1A cells were also examined for the effects of various mitochondrial inhibitors. […] Azide was diluted from an aqueous stock solution.

Experiment [3] concerns TABX1A cells (Bcl-xL antisense). The experiment in a line: Cell viability by trypan blue dye exclusion. Particulars: 2 μg/ml, without fructose, six hours.
From the text: as §1
as §2, with “(untreated). […]” for “(untreated).”

A further experiment has as its system control mitochondria. Kind of experiment: Rhodamine 123 retention assay, isolated mitochondria. It is filed as biochemical, murine. As to conditions: five minutes after addition. Here is the method:
(§3) Rh-123 is a cationic lipid-soluble fluorescent dye that accumulates in mitochondria in proportion to the mitochondrial membrane potential. Mitochondria were isolated from TABX2S cells (over-expressing Bcl-xL) and from control cells, prepared as described in Example 2. The isolated mitochondria were loaded with Rh-123 by incubation with 10 μM Rh-123 for 30 minutes, washing and resuspention in buffer. […] Less than 40% of Rh-123 was retained in antimycin A-treated TABX2S mitochondria, compared with greater than 80% retained in control mitochondria.

Experiment [4] deals with mitochondria from TABX2S cells. Described as above. Particulars: five minutes after addition. It is filed as biochemical, murine. Here is the method:
as §3

Take antimycin A: in experiment [1], the “respiration dampened by” value was > 90%. Further, the “time until cell death readily apparent” value in experiment [2] is ≤ 2 h. In addition, the survival in experiment [3] was determined as 87%. The figures for the Rh-123 retained entry (in the experiment with control mitochondria; in experiment [4]) were “greater than 80%” and “Less than 40%”, respectively.
